From paper PMC9466619, “Anti-cancer and immunomodulatory evaluation of new nicotinamide derivatives as potential VEGFR-2 inhibitors and apoptosis inducers: in vitro and in silico studies” (Journal of Enzyme Inhibition and Medicinal Chemistry, 2022)
Values belong to the compound of their own block, whether it stands above or below them.

How the values were obtained:
[1] = test system: HepG-2; assay: MTT anti-proliferative assay, HepG-2; assay type: cell-based; conditions: Homo sapiens, HepG2, HepG-2 hepatocellular carcinoma cells, read-out: Cytotoxicity IC50 HepG-2
Procedure: (§1) MTT procedure[41]^,[42] was applied for the determination of the anti-proliferative activity as described in Supplementary data.
(§2) 3- 4.2. Experimental of biological testing
(§3) 4.2.1. In vitro anti-proliferative activity
(§4) The in vitro antiproliferative activities of the synthesized compounds were evaluated against two human tumor cell lines: hepatocellular carcinoma (HepG2) and breast cancer (MCF-7) using MTT assay protocol The commercially available […]
(§5) The tested cell lines were purchased and dropped on the appropriate growth medium. The growth medium was supplemented with […] of streptomycin, 100 units/mL of penicillin and 10% of heat-inactivated fetal bovine serum in a humidified 5% (v/v) CO2 atmosphere at 37 ◦C.
(§6) Then the cells from the two cancer cell lines were seeded at the appropriate densities into 96-well microtiter plates. After incubation for 24 h, the growth medium of each cell was treated with graded concentrations (0.1, 10, 100 and 1000 μM) of the test compounds and incubated for three days. The viability of treated cells was determined using 3-[4,5-dimethylthiazole-2-yl]- 2,5-diphenyltetrazolium bromide (MTT) technique as cells were stained with 5% MTT solution and allowed to break down the dye into colored-insoluble formazan crystals for 4 h. The formazan crystals were dissolved in acidified isopropanol for 30 min with continuous shaking at room temperature. The colorimetric assay was measured and recorded at absorbance of 570 nm. The cell viability was expressed as percentage of control and the concentration that […]
(§7) 100% viability and group treated with a mixture of toxic compounds as 0% viability.
(IC50) were determined for each compound using Graph Pad Prism version 5 software by plotting of log C against % viability. […]

[2] = target: T1, human VEGFR-2 (Homo sapiens, UniProt P35968); assay: In vitro VEGFR-2 enzyme inhibition assay (Human VEGFR-2 ELISA kit); assay type: biochemical
T1 construct: VEGFR-2 in HepG2 cell line; endogenous in cells; host or cells: HepG2
T1 sequence (P35968 20-1356): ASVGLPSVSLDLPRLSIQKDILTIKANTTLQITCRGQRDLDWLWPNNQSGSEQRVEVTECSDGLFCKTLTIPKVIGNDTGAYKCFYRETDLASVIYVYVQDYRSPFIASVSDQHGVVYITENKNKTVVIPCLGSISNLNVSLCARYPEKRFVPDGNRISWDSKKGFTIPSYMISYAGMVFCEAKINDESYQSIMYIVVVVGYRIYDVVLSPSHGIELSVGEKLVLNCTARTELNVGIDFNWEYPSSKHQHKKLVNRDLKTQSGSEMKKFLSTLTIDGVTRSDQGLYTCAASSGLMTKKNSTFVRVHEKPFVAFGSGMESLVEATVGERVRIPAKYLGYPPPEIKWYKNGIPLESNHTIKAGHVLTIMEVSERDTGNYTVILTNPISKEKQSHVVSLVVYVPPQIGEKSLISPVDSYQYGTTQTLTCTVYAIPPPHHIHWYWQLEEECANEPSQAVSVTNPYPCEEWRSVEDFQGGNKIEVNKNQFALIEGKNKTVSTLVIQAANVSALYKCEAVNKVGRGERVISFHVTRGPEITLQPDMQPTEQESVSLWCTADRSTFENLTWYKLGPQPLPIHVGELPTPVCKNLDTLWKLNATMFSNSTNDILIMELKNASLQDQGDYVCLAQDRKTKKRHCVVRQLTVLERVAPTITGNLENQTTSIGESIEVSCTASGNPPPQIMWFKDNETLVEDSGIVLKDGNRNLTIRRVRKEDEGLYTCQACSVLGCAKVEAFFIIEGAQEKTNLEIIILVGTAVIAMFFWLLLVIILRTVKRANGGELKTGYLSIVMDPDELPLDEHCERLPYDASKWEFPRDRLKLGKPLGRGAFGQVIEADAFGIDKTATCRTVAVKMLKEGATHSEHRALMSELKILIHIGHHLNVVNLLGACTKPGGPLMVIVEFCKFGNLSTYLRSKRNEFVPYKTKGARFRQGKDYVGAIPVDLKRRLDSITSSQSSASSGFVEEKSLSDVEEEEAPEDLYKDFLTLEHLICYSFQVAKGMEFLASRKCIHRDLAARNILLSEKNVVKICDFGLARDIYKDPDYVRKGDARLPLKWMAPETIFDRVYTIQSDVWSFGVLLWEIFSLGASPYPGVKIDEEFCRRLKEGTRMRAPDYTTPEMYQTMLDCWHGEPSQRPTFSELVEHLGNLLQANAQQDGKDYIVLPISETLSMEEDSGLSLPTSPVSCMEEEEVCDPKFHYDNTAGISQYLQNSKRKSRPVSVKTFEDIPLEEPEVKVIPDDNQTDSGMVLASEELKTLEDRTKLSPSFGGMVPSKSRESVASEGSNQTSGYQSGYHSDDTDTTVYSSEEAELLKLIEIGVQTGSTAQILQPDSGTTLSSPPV
Procedure: as §2
4.2.1. In vitro anti-proliferative activity […]
The tested cell lines were purchased and dropped on the appropriate growth medium. The growth medium was supplemented with […] of streptomycin, 100 units/mL of penicillin and 10% of heat-inactivated fetal bovine serum in a humidified 5% (v/v) CO2 atmosphere at 37 ◦C. […]
(§8) 4.2.2. In vitro VEGFR-2 kinase assay
(§9) The synthesized compounds were estimated for their in vitro inhibition on human VEGFR-2 in HepG2 cell line; using ELISA kit. Firstly, a plate was used for the assay […]
nominated as a standard VEGFR-2 inhibitor. Both standard and samples were added to the wells and incubated overnight at 4 ◦C, then washed. The biotinylated antibody was supplemented and further incubated for 1 h at room temperature. The unreacted, liberated antibody was then washed; followed by addition of HRP-conjugated streptavidin and incubated for 45 min at room temperature. Wells were washed and a TMB substrate solution was added and kept at room temperature for 30 min. Finally, the stop solution was added, and the intensity of the color produced was measured at […]

[3] = test system: HCT-116; assay: MTT anti-proliferative assay, HCT-116; assay type: cell-based; conditions: Homo sapiens, HCT-116 colorectal cancer cells, read-out: Cytotoxicity IC50 HCT-116
Procedure: [Worded in the source for another cell line; this cell line is reported under the same test.] as §1, §2, §3, §4, §5, §6, §7
(IC50) were determined for each compound using Graph Pad Prism version 5 software by plotting of log C against % viability.
as §8, §9
nominated as a standard VEGFR-2 inhibitor. Both standard and samples were added to the wells and incubated overnight at 4 ◦C, then washed. The biotinylated antibody was supplemented and further incubated for 1 h at room temperature. The unreacted, […]

[4] = test system: TNF-α; assay: qRT-PCR level of TNF-α in HCT-116 cells; assay type: cell-based, human; conditions: 24 h, compound 7 at 15.70 µM, compound 10 at […]
Procedure: (§10) Dexamethasone as a universal immunomodulatory drug was used as a reference molecule.
(§11) The effect of compounds 7 and 10 on the expression of TNF-α and IL-6 were determined using qRT-PCR as described in Supplementary data[48–50].
(§12) 4.2.5. Quantitative Real Time Reverse-Transcriptase PCR technique
(§13) The quantity of immunomodulatory proteins (TNF-α and IL-6) in control and compounds 7, 10 (at the IC50 concentration)-treated HepG2 cells was as sessed by qRT-PCR (reference). Total RNA from vehicle -treated control (0.01% DMSO) and […] HepG2 cells were extracted as -per the manufacturer instructi ons (RNeasy mini kit, Qiagen, Germany). After RNA extraction, cDNA was prepared using the Revert Aid First Strand cDNA Synthesis kit (Thermo Scientific, USA). Amplification of target cDNA for apoptosis markers and GAPDH [as a normalization (housekeeping) gene] was done using one-step RT-PCR SYBR® Green kit Master Mix (Bio‐Rad
(§14) Laboratories, USA) on Rotor -Gene Q real-time PCR thermal cycler instrument. cDNA (2 μl aliquots) was mixed with 1 μl of forward primer, 1 μl re verse primer, 10 μl master mixture, and the reaction volume was completed to 20 μl with nuclease -free water. All experiments were performed in tri plicates
(§15) 4- 4.3. Experimental of in silico studies

[5] = test system: IL-6; assay: qRT-PCR level of IL-6 in HCT-116 cells; assay type: cell-based, human; conditions: 24 h, compound 7 at 15.70 µM, compound 10 at […]
Procedure: as §10, §11, §12, §13, §14, §15

[6] = test system: HCT-116 cells; assay: Apoptosis assay, FITC-Annexin V/PI flow cytometry; assay type: cell-based, human; conditions: 15.70 μM, 48 h
Procedure: To determine whether apoptosis induction is involved in the anti-proliferative effects of the synthesised compounds, the apoptosis assay was performed for compound 7 against HCT-116 cells. The cells were incubated with either vehicle or compound 7 at a concentration of 15.70 μM for 48 h and then stained with FITC-Annexin V and propidium iodide (PI). The percentages of apoptotic HCT-116 cells were determined by flow cytometry analysis.
Flow cytometry cell apoptosis analysis was used to investigate the apoptotic effect of compound 7 as described in Supplementary data[46]^,[47]. […]
4.2.4. Flow cytometry analysis for apoptosis
Flow cytometry cell apoptosis analysis was used to investigate the apoptotic […]
AnnexinV-fluorescein isothiocyanate (Annexin V-FITC) is a protein that has high affinity to phosphatidyl serine PS, which can be detected by staining with Annexin V-(FITC) and counter staining with propidium iodide (PI). In such procedure, HepG2 cells were incubated together with the tested compound […] for 24 h. Then, the cells were centrifuged, collected by trypsin, washed with PBS two successive times, and suspended in […] of binding buffer. The double staining Annexin V-FITC […] were added to the cells and incubated in the dark for 5 min at room temperature. The stained cells were analyzed for flow cytometry using FACS caliber flow cytometer and apoptosis detection kit (BD Biosciences, San Jose, CA)

[7] = test system: HCT-116 cells; assay: Cell cycle analysis by PI staining and flow cytometry; assay type: cell-based, human; conditions: 48 h
Procedure: Numerous anti-proliferative agents produce their effect by either arresting the cell growth at a particular point of the cell cycle or the induction of apoptosis, or by a combined effect. Taking compound 7 as a representative example of the tested compounds, its effect on the cell-cycle arrest of the HCT-116 cells for 48 h was evaluated by flow cytometry assay using the untreated HCT-116 as a control.
Cell cycle analysis was performed using propidium iodide (PI) staining and flow cytometry analysis for compound 7 as described in Supplementary data[44]^,[45]. […]
5% CO2. Cells were washed twice with phosphate buffer saline, then the centrifugation of cell pellets had been completed, followed by preservation with ice-cold 70% ethanol for 15 min. Pellets were collected again and incubated with propidium iodide (PI) staining solution. After incubation for one hour at room temperature, it was analyzed by flowcytometry on an FC500 cytometer (Beckman Coulter) and the cell cycle distributions were calculated. […]

SMILES: CNC(=O)c1cc(Oc2ccc(NC(=O)Nc3ccc(Cl)c(C(F)(F)F)c3)cc2)ccn1 [Sorafenib, reference compound]
IC50 [1]: 7.4 ± 0.253 µM
IC50 [3]: 9.3 ± 0.201 µM

SMILES: C/C(=N\NC(=O)c1ccccc1Cl)c1ccc(NC(=O)c2cccnc2)cc1 [Compound 10]
IC50 [2]: 0.145 µM

SMILES: C[C@@H]1C[C@H]2[C@@H]3CCC4=CC(=O)C=C[C@]4(C)[C@@]3(F)[C@@H](O)C[C@]2(C)[C@@]1(O)C(=O)CO [Dexamethasone, reference compound]
TNF-α (% inhibition) [4]: 82.47%
TNF-α (% inhibition) ([4]; listed as dexamethasone): 82.4%
IL-6 (% inhibition) [5]: 93.15%
IL-6 (% inhibition) ([5]; listed as dexamethasone): 93.1%

Further lines, with some results ahead:

IC50 [2]: 0.0866 µM
SMILES: CC(=O)Nc1ccc(C(=O)N/N=C(\C)c2ccc(NC(=O)c3cccnc3)cc2)cc1 [Compound 11, (E)-N-(4–(1-(2–(4-Acetamidobenzoyl)hydrazono)ethyl)phenyl)nicotinamide]
IC50 [1]: 21.6 ± 0.07 µM
IC50 [3]: 20.17 ± 0.063 µM

IC50 [2]: 0.25 µM
SMILES: COc1cc(/C=N/NC(=O)c2ccc(NC(=O)c3cccnc3)cc2)cc(OC)c1OC [Compound 7, (E)-N-(4–(2-(3,4,5-Trimethoxybenzylidene)hydrazine-1-carbonyl)phenyl) nicotinamide]
Apoptosis Early [6]: 2.75%
Apoptosis Late [6]: 11.26%
Apoptosis Total [6]: 15.74%
Increase in early-phase apoptotic cells versus control [6]: 4 fold
Increase in late-phase apoptotic cells versus control [6]: 6.5 folds
Necrosis [6]: 1.73%
Total apoptosis induction versus control [6]: 5 folds
IC50 [1]: 15.5 ± 0.055 µM
Cell cycle distribution (%) % S [7]: 26.92%
Cell cycle distribution (%) %G0-G1 [7]: 41.92%
Cell cycle distribution (%) %G2-M [7]: 31.16%
Cell cycle distribution (%) %Pre-G1 [7]: 15.74%
IC50 [3]: 15.7 ± 0.058 µM

IC50 [2]: 0.292 µM
SMILES: O=C(N/N=C/c1cccc([N+](=O)[O-])c1)c1ccc(NC(=O)c2cccnc2)cc1 [Compound 6, (E)-N-(4–(2-(3-Nitrobenzylidene)hydrazine-1-carbonyl)phenyl)nicotinamide]
IC50 [1]: 19.5 ± 0.063 µM
IC50 [3]: 22.09 ± 0.064 µM
